IC50 data for 15 compounds are collected here from patent US20150344444A1, “BET-PROTEIN-INHIBITING DIHYDROXYQUINOXALINONES” (BAYER PHARMA AKTIENGESELLSCHAFT, priority 2012, published 2015).

Assay [1] deals with MOLM-13 cells. In words: MOLM-13 cell proliferation assay (alamarBlue). The class given is cell-based. The following applies: inhibition of cell proliferation, 96 hours, human AML cell line. The protocol:
(§1) In accordance with the invention, the ability of the substances to inhibit cell proliferation was determined Cell viability was determined by means of the alamarBlue® reagent (Invitrogen) in a Victor X3 Multilabel Reader (Perkin Elmer). The excitation wavelength was 530 nm and the emission wavelength […].
The MOLM-13 cells (DSMZ, ACC 554) were sown at a concentration of 4000 cells/well in 100 μl of growth medium (RPMI1640, 10% FCS) on 96-well microtitre plates.
(§2) After overnight incubation at 37° C., the fluorescence values were determined (CI values). Then the plates were treated with various substance dilutions (1E-5 M, 3E-6 M, 1E-6 M, 3E-7 M, 1E-7 M, 3E-8 M, 1E-8 M) and incubated at 37° C. over 96 hours (MOLM-13, B16F10 cells) or 120 hours (MOLP-8 cells). Subsequently, the fluorescence values were determined (CO values). For the data analysis, the CI values were subtracted from the CO values and the results were compared between cells which had been treated with various dilutions of the substance or only with buffer solution. The IC50 values (substance concentration needed for 50% inhibition of cell proliferation) were calculated therefrom.
MOLM-13 human AML (acute myeloid leukaemia) cell line
On the technique in general: Alamar Blue is a resazurin reagent that responds to reducing activity.

Assay [2] concerns the target T1, BRD4 Bromo Domain 1 [BRD4(1)] (Homo sapiens, UniProt O60885).
T1 construct: N-terminally His6-tagged BRD4(1) (amino acids 67-152); made in house; host or cells: E. coli
In words: BRD4(1)/acetylated peptide H4 binding assay (TR-FRET). The note with it: inhibition of interaction between His6-tagged BRD4(1) (amino acids 67-152) and acetylated histone H4 peptide. From the text: Protein-Protein Interaction Assay: BRD4/Acetylated Peptide H4 Binding Assay
1. Assay Description for BRD4 Bromo Domain 1 [BRD4(1)]
To assess the BRD4(1) binding strength of the substances described in this application, the ability thereof to inhibit the interaction between BRD4(1) and acetylated histone H4 in a dose-dependent manner was quantified.
For this purpose, a time-resolved fluorescence resonance energy transfer (TR-FRET) assay was used, which measures the binding between N-terminally His6-tagged BRD4(1) (amino acids 67-152) and a synthetic acetylated histone H4 (Ac-H4) peptide with sequence GRGK(Ac)GGK(Ac)GLGK(Ac)GGAK(Ac)RHGSGSK-biotin. The recombinant BRD4(1) protein produced in house according to Filippakopoulos et al., Cell, 2012, 149:214-231 was expressed in E. coli and purified by means of (Ni-NTA) affinity and (Sephadex G-75) size exclusion chromatography. The Ac-H4 peptide can be purchased, for example, from Biosyntan (Berlin, Germany).
In the assay, typically 11 different concentrations of each substance (0.1 nM, 0.33 nM, 1.1 nM, 3.8 nM, 13 nM, 44 nM, 0.15 μM, 0.51 μM, 1.7 μM, 5.9 μM and 20 μM) were analysed as duplicates on the same microtitre plate. For this purpose, 100-fold concentrated solutions in DMSO were prepared by serial dilutions (1:3.4) of a 2 mM stock solution into a clear, 384-well microtitre plate (Greiner Bio-One, Frickenhausen, Germany). From this, 50 nl were transferred into a black test plate (Greiner Bio-One, Frickenhausen, Germany). The test was started by the addition of 2 μl of a 2.5-fold concentrated BRD4(1) solution (final concentration typically 10 nM in the 5 μl of reaction volume) in aqueous assay buffer [50 mM HEPES pH 7.5, 50 mM sodium chloride (NaCl), 0.25 mM CHAPS and 0.05% serum albumin (BSA)] to the substances in the test plate. This was followed by a 10-minute incubation step at 22° C. for the pre-equilibration of putative complexes between BRD4(1) and the substances.
The mixture was then incubated in the dark at 22° C. for one hour and then at 4° C. for at least 3 hours and for no longer than overnight. The formation of BRD4(1)/Ac-H4 complexes was determined by the measurement of the resonance energy transfer from the streptavidin-Eu cryptate to the anti-6His-XL665 antibody present in the reaction. For this purpose, the fluorescence emission was measured at 620 nm and 665 nm after excitation at 330-350 nm in a TR-FRET measuring instrument, for example a Rubystar or Pherastar (both from BMG Lab Technologies, Offenburg, Germany) or a Viewlux (Perkin-Elmer). The ratio of the emissions at 665 nm and at 622 nm was taken as an indicator of the amount of BRD4(1)/Ac-H4 complexes formed.
The data (ratios) obtained were normalized, with 0% inhibition corresponding to the mean from the measurements for a set of controls (typically 32 data points) in which all the reagents were present. In these, in place of test substances, 50 nl of DMSO (100%) were used Inhibition of 100% corresponded to the mean from the measurements for a set of controls (typically 32 data points) in which all the reagents except BRD4(1) were present. The IC50 was determined by regression analysis based on a 4-parameter equation (minimum, maximum, IC50, Hill; Y=max+(min−max)/(1+(X/IC50)Hill).

Assay [3] relates to B16F10 cells. Put plainly: B16F10 cell proliferation assay (alamarBlue). The following applies: B16-F10; inhibition of cell proliferation, 96 hours, mouse melanoma cell line. The class given is cell-based. On the procedure:
as §1
The B16F10 cells (ATCC, CRL-6475) were sown at a concentration of 300-500 cells/well in 100 μl of growth medium (DMEM with phenol red, 10% FCS) on 96-well microtitre plates.
as §2
B16F10 mouse melanoma cell line

SMILES strings stand for the structures. pIC50: −log10 of the molar value.

For `C[C@@H]1C(=O)N(C)c2ccc(Nc3ccc(C(=O)N4CC5(CCS5(=O)=O)C4)cc3)cc2N1Cc1ccccc1` [Example 16, (3R)-4-benzyl-6-({4-[(1,1-dioxido-1-thia-6-azaspiro[3.3]hept-6-yl)carbonyl]phenyl}amino)-1,3-dimethyl-3,4-dihydroquinoxalin-2(1H)-one], the negative-log IC50 (pIC50) in assay [1] is 6.43; in assay [2], 6.59; in assay [3], 6.60.

Consider `COc1ccc(CN2c3cc(Nc4ccc(C(=O)NC5CCN(C)CC5)cc4)ccc3N(C)C(=O)[C@H]2C)cc1` [Example 17, 4-{[(3R)-4-(4-methoxybenzyl)-1,3-dimethyl-2-oxo-1,2,3,4-tetrahydroquinoxalin-6-yl]amino}-N-(1-methylpiperidin-4-yl)benzamide], for which the pIC50 was 6.50 in assay [1], 6.94 in assay [2] and 6.42 in assay [3].

Turning to `COc1ccc(CN2c3cc(Nc4ccc(C(=O)N5CCOCC5)cc4)ccc3N(C)C(=O)[C@H]2C)cc1` [Example 18, (3R)-4-(4-methoxybenzyl)-1,3-dimethyl-6-{[4-(morpholin-4-ylcarbonyl)phenyl]amino}-3,4-dihydroquinoxalin-2(1H)-one], the negative logarithm of the IC50 (pIC50) was 6.59 in assay [1], 6.72 in assay [2] and 6.54 in assay [3].

Consider `COc1ccc(CN2c3cc(Nc4ccc(C(=O)NCC5COC5)cc4)ccc3N(C)C(=O)[C@H]2C)cc1` [Example 19, 4-{[(3R)-4-(4-methoxybenzyl)-1,3-dimethyl-2-oxo-1,2,3,4-tetrahydroquinoxalin-6-yl]amino}-N-(oxetan-3-ylmethyl)benzamide], for which the negative-log IC50 (pIC50) is 6.47 in assay [1], 6.83 in assay [2] and 6.61 in assay [3].

In the case of `COc1ccc(CN2c3cc(Nc4ccc(C(=O)N5CC6(COC6)C5)cc4)ccc3N(C)C(=O)[C@H]2C)cc1` [Example 20, (3R)-4-(4-methoxybenzyl)-1,3-dimethyl-6-{[4-(2-oxa-6-azaspiro[3.3]hept-6-ylcarbonyl)phenyl]amino}-3,4-dihydroquinoxalin-2(1H)-one], the figures for the pIC50 in assay [1], in assay [2] and in assay [3] were 6.45, 6.98 and 6.59, respectively.

For `COc1ccc(CN2c3cc(Nc4ccc(C(=O)NCCN5CCN(C)CC5)cc4)ccc3N(C)C(=O)[C@H]2C)cc1` [Example 21, 4-{[(3R)-4-(4-methoxybenzyl)-1,3-dimethyl-2-oxo-1,2,3,4-tetrahydroquinoxalin-6-yl]amino}-N-[2-(4-methylpiperazin-1-yl)ethyl]benzamide], the negative-log IC50 (pIC50) in assay [1] was 6.56; in assay [2] it was 6.97; in assay [3], 6.39.

Consider `COc1ccc(CN2c3cc(Nc4ccc(C(=O)N5CCN(C(C)C)CC5)cc4)ccc3N(C)C(=O)[C@H]2C)cc1` [Example 22, (3R)-4-(4-methoxybenzyl)-1,3-dimethyl-6-[(4-{[4-(propan-2-yl)piperazin-1-yl]carbonyl}phenyl)amino]-3,4-dihydroquinoxalin-2(1H)-one], for which the values for the negative-log IC50 (pIC50) in assay [1], in assay [2] and in assay [3] were 6.58, 6.76 and 6.28, respectively.

`C[C@@H]1C(=O)N(C)c2ccc(Nc3ccc(C(=O)NC4CCN(C)CC4)cc3)cc2N1C1CCCCCC1` [Example 23, 4-{[(3R)-4-cycloheptyl-1,3-dimethyl-2-oxo-1,2,3,4-tetrahydroquinoxalin-6-yl]amino}-N-(1-methylpiperidin-4-yl)benzamide]: the pIC50 in assay [1] is 5.90; in assay [2], 6.75; in assay [3], 5.71.

For the compound `C[C@@H]1C(=O)N(C)c2ccc(Nc3ccc(C(=O)N4CCOCC4)cc3)cc2N1C1CCCCCC1` [Example 24, (3R)-4-cycloheptyl-1,3-dimethyl-6-{[4-(morpholin-4-ylcarbonyl)phenyl]amino}-3,4-dihydroquinoxalin-2(1H)-one], the results for the negative-log IC50 (pIC50) in assay [1], in assay [2] and in assay [3] were 6.01, 6.84 and 6.14, respectively.

`C[C@@H]1C(=O)N(C)c2ccc(Nc3ccc(C(=O)NC4CCN(C)CC4)cc3)cc2N1C1CCOCC1` [Example 26, 4-{[(3R)-1,3-dimethyl-2-oxo-4-(tetrahydro-2H-pyran-4-yl)-1,2,3,4-tetrahydroquinoxalin-6-yl]amino}-N-(1-methylpiperidin-4-yl)benzamide]: the negative logarithm of the IC50 (pIC50) in assay [1] is 5.80; in assay [2], 6.43; in assay [3], 5.40.

For the compound `C[C@@H]1C(=O)N(C)c2ccc(Nc3ccc(C(=O)N4CCOCC4)cc3)cc2N1C1CCOCC1` [Example 27, (3R)-1,3-dimethyl-6-{[4-(morpholin-4-ylcarbonyl)phenyl]amino}-4-(tetrahydro-2H-pyran-4-yl)-3,4-dihydroquinoxalin-2(1H)-one], the pIC50 in assay [1] is 5.71; in assay [2] it was 6.64; in assay [3], 5.60.

`C[C@@H]1C(=O)N(C)c2ccc(Nc3ccc(C(=O)NCC4COC4)cc3)cc2N1C1CCOCC1` [Example 28, 4-{[(3R)-1,3-dimethyl-2-oxo-4-(tetrahydro-2H-pyran-4-yl)-1,2,3,4-tetrahydroquinoxalin-6-yl]amino}-N-(oxetan-3-ylmethyl)benzamide]: the results for the negative-log IC50 (pIC50) in assay [1], in assay [2] and in assay [3] were 5.56, 6.44 and 5.55, respectively.

As to `C[C@@H]1C(=O)N(C)c2ccc(Nc3ccc(C(=O)N4CC5(COC5)C4)cc3)cc2N1C1CCOCC1` [Example 29], the pIC50 in assay [1] was 5.64; in assay [2], 6.73; in assay [3], 5.57.

On to `C[C@@H]1C(=O)N(C)c2ccc(Nc3ccc(C(=O)NCCN4CCN(C)CC4)cc3)cc2N1C1CCOCC1` [Example 30, 4-{[(3R)-1,3-dimethyl-2-oxo-4-(tetrahydro-2H-pyran-4-yl)-1,2,3,4-tetrahydroquinoxalin-6-yl]amino}-N-[2-(4-methylpiperazin-1-yl)ethyl]benzamide], for which the pIC50 in assay [1] was 5.77; in assay [2] it was 6.42; in assay [3], 5.57.

With `C[C@@H]1C(=O)N(C)c2ccc(Nc3ccc(C(=O)N4CC5(CCS5(=O)=O)C4)cc3)cc2N1C1CCOCC1` [Example 31, (3R)-6-({4-[(1,1-dioxido-1-thia-6-azaspiro[3.3]hept-6-yl)carbonyl]phenyl}amino)-1,3-dimethyl-4-(tetrahydro-2H-pyran-4-yl)-3,4-dihydroquinoxalin-2(1H)-one], the pIC50 in assay [1] is 5.75; in assay [2], 6.72; in assay [3], 5.49.

Usually pIC50 stands for the negative decadic logarithm of the IC50, by convention in mol/L.
